Among the data in publication PMC10507085, “Pharmacological inhibition of TBK1/IKKε blunts immunopathology in a murine model of SARS-CoV-2 infection” (Nature Communications, 2023) are remaining binding and Kd values, retold here.

Common to all, as to test: biochemical
Holding throughout (set-up): KINOMEscan competition binding, DNA-tagged kinase against immobilised ligand, qPCR read-out
For orientation: In qPCR the cycle at which signal appears reflects the starting amount.

The target of one assay is STK32B (Homo sapiens, UniProt Q9NY57). The note with it: read-out: Percent Control.
Another assay deals with CIT (Homo sapiens, UniProt O14578). The settings on record: read-out: Percent Control.
The target of a further assay is STK38 (Homo sapiens, UniProt Q15208). The note with it: read-out: Percent Control.
For the next assay, the target named is MAP3K11 (Homo sapiens, UniProt Q16584). The note with it: read-out: Percent Control.
Another assay concerns the target T1, ABL1-phosphorylated (Homo sapiens, UniProt P00519).
T1 construct: phosphorylated
The settings on record: read-out: Percent Control.

Another assay has as its target MAPKAPK5 (Homo sapiens, UniProt Q8IW41). The note with it: read-out: Percent Control.
In another assay the target is HUNK (Homo sapiens, UniProt P57058). The note with it: read-out: Percent Control.
Another assay addresses ANKK1 (Homo sapiens, UniProt Q8NFD2). The settings on record: read-out: Percent Control.
The target of the next assay is PAK6 (Homo sapiens, UniProt Q9NQU5). The settings on record: read-out: Percent Control.
The target of another assay is TAOK1 (Homo sapiens, UniProt Q7L7X3). The method in brief: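 Serial 3-fold dilutions (11 points) of compound were made in 100% DMSO at 100× test concentration and diluted to 1× in the assay. Each compound concentration was then competed against an immobilised ligand for binding of DNA-tagged kinase. Ligand-bound kinase was measured by RT-qPCR.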
The next assay deals with CSNK1G1 (Homo sapiens, UniProt Q9HCP0). The settings on record: read-out: Percent Control.
A further assay has as its target CDK11B (Homo sapiens, UniProt P21127). The note with it: read-out: Percent Control.
Another assay addresses PHKG2 (Homo sapiens, UniProt P15735). The note with it: read-out: Percent Control.
Another assay has as its target DCLK2 (Homo sapiens, UniProt Q8N568). The note with it: read-out: Percent Control.
In the next assay the target is ROCK1 (Homo sapiens, UniProt Q13464). The note with it: read-out: Percent Control.
The target of the next assay is CSNK1G3 (Homo sapiens, UniProt Q9Y6M4). The note with it: read-out: Percent Control.
In a further assay the target is MAPK7 (Homo sapiens, UniProt Q13164). The settings on record: read-out: Percent Control.
Another assay deals with BRAF (Homo sapiens, UniProt P15056). The settings on record: read-out: Percent Control.
The target in the next assay is NTRK2 (Homo sapiens, UniProt Q16620). The note with it: read-out: Percent Control.
The target of another assay is WNK3 (Homo sapiens, UniProt Q9BYP7). The note with it: read-out: Percent Control.

TAOK1, sequence (Q7L7X3 whole entry): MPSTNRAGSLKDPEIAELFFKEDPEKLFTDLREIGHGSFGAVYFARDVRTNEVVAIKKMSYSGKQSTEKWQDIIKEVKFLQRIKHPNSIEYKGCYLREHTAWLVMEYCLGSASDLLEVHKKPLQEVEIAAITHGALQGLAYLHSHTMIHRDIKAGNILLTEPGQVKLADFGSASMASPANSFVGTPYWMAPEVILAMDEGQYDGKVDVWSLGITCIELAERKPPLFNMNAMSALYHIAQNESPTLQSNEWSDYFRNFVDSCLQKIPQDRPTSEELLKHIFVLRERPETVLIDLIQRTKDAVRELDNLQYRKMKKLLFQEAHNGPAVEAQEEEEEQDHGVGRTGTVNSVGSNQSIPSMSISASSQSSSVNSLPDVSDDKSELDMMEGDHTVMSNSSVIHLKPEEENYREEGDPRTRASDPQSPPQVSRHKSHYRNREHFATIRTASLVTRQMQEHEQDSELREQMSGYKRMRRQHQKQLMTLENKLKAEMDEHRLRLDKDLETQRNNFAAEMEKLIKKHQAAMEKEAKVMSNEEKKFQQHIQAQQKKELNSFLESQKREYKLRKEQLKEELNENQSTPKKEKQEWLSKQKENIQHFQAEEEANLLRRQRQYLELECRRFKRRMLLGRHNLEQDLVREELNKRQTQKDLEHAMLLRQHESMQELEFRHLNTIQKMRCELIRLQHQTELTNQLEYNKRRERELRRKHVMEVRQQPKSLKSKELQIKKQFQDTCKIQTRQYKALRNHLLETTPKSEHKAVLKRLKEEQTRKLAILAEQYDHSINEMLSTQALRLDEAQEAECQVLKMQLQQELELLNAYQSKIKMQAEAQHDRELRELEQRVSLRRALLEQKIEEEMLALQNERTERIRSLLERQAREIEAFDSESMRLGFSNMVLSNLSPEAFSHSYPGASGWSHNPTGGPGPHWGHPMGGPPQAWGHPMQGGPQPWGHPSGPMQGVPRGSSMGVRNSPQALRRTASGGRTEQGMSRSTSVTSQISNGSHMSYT
CSNK1G3, sequence (Q9Y6M4 whole entry): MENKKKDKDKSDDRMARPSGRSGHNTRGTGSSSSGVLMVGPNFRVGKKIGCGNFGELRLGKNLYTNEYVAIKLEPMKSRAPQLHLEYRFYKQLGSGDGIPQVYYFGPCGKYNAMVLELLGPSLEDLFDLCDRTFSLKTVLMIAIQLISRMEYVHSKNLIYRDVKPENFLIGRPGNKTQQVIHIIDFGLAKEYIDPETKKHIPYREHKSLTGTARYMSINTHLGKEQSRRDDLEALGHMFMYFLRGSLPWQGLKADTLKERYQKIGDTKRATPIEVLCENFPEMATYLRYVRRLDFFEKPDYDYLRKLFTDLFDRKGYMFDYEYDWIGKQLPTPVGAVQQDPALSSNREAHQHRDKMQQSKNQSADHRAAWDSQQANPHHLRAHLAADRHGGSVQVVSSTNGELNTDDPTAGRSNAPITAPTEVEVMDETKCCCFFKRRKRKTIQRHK
CDK11B, sequence (P21127 whole entry): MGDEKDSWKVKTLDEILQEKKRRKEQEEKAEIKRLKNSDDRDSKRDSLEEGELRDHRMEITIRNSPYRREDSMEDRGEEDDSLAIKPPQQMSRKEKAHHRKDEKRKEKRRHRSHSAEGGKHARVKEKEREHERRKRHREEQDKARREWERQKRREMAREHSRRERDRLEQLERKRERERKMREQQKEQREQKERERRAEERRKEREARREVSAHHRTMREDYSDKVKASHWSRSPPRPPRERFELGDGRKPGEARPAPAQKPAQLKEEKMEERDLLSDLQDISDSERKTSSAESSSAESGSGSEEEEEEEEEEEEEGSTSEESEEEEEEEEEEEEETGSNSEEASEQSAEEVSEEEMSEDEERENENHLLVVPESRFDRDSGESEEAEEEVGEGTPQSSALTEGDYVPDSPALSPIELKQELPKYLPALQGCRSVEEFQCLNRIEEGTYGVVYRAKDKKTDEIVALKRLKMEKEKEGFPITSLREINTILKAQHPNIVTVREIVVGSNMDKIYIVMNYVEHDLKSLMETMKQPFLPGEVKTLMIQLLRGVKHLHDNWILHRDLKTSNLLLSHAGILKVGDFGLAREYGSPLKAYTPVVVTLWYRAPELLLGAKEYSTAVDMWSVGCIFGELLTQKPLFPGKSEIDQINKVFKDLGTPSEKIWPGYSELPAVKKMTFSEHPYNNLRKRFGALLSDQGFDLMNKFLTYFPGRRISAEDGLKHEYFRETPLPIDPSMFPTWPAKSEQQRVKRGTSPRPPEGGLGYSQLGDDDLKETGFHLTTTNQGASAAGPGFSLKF
STK38, sequence (Q15208 whole entry): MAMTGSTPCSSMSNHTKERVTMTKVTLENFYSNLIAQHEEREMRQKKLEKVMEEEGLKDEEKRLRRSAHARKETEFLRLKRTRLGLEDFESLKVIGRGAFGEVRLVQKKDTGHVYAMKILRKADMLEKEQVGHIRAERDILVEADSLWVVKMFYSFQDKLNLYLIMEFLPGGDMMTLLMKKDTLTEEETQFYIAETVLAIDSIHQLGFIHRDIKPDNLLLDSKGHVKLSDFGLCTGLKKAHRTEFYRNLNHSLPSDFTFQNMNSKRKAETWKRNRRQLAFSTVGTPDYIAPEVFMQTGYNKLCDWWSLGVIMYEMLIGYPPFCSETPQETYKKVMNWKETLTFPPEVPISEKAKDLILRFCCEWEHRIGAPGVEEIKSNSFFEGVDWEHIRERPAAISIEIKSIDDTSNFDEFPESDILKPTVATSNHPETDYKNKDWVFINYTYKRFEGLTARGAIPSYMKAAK
CSNK1G1, sequence (Q9HCP0 whole entry): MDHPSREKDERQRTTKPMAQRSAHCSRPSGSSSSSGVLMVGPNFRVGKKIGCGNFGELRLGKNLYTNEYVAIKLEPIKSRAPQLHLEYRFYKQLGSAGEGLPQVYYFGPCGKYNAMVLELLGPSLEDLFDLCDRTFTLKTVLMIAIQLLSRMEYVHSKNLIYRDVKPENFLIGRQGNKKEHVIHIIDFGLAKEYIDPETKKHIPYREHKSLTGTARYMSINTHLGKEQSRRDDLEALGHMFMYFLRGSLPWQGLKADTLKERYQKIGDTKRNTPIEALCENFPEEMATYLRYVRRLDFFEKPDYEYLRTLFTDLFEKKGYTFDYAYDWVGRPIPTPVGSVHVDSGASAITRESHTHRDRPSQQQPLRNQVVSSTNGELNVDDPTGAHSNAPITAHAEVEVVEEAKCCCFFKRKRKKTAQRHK
NTRK2, sequence (Q16620 whole entry): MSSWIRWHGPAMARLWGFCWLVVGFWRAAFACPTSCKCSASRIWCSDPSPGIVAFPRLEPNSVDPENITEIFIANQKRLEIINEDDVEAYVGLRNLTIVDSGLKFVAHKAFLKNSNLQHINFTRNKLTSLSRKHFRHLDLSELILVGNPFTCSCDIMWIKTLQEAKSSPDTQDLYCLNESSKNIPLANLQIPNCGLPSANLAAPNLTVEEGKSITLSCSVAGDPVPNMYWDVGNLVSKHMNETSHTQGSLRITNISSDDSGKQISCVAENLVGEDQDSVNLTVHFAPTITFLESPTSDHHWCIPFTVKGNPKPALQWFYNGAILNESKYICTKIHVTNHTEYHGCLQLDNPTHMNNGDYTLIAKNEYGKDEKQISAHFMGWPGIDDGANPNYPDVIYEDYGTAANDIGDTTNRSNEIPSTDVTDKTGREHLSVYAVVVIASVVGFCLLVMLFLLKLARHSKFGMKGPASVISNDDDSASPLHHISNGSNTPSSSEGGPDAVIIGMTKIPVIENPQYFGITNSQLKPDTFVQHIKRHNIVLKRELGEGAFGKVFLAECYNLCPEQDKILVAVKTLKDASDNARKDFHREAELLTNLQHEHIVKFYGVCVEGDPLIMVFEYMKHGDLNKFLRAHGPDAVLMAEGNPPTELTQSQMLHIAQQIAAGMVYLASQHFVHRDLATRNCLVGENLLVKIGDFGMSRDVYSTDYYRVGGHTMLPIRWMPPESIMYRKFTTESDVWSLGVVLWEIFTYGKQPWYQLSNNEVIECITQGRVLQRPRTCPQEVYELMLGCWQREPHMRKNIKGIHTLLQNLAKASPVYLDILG
STK32B, sequence (Q9NY57 whole entry): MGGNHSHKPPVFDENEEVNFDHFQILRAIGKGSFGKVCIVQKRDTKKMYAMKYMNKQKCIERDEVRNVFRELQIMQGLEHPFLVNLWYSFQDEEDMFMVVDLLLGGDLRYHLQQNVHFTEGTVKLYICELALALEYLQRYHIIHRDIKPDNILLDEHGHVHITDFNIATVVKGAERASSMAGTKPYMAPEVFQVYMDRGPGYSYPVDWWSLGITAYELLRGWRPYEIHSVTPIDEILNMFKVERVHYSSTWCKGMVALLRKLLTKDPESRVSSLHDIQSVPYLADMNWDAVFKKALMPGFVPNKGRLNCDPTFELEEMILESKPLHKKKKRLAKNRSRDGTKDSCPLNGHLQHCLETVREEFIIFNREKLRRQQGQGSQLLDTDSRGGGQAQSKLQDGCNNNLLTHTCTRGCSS
PHKG2, sequence (P15735 whole entry): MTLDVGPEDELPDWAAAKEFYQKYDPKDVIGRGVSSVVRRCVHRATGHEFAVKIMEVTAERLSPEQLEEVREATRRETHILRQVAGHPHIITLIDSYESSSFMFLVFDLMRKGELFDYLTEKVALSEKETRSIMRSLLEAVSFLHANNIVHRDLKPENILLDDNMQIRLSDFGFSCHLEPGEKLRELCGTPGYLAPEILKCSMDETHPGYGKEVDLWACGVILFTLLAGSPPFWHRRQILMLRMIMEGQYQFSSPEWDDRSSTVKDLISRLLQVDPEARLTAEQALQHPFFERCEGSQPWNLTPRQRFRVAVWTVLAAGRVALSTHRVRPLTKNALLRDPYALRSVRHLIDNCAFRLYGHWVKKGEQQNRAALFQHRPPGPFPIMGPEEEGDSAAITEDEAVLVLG

One may read the Kd as the constant that tells how readily two partners part at equilibrium. Consider `Oc1ccc(C2=Cc3ccc(O)cc3OC2)cc1` [compound 1, idronoxil], for which the remaining binding at 10 µM at STK32B is 100%; on CIT, 62%; at STK38 it was 68%; at MAP3K11, 63%; on ABL1-phosphorylated it was 35%; on MAPKAPK5 it was 75%. For the same molecule, the remaining binding at 10 µM is 69% on HUNK; 66% at ANKK1; 100% at PAK6; 16% on TAOK1 (read-out: Percent Control); 95% at CSNK1G1; 96% on CDK11B. Also, the remaining binding at 10 µM on PHKG2 came out at 46%; at DCLK2, 73%; at ROCK1 it was 85%; on CSNK1G3, 100%; on MAPK7, 90%; on BRAF, 76%. In addition, the remaining binding at 10 µM at NTRK2 is 62%; at WNK3 it was 80%. Also, the dissociation constant Kd on TAOK1 amounted to 4.7 µM.
